# Measurements as given in US20070015780A1, “Method of treating cancer with azaspirane compositions” (priority 2003, published 2007).
# Where a name gives a salt, the structure may show the parent alone.
# Experiment: Excretion and recovery of radioactivity after single oral administration, target dose 1 mg free base/kg
# Assay type: in vivo, male Sprague Dawley rats
# Set-up: Excretion of Radioactivity, Urine / Excretion of Radioactivity, Cage Wash: unit not given beside the values
# Conditions: for Recovery of Radioactivity, Carcass / Recovery of Radioactivity, GI Tract: at 168 hours
# Description: [^14C] N,N,-diethyl-8,8-dipropyl-2-azaspiro[4,5]decane-2-propanamine dimaleate salt, (“Compound II”) with a specific activity of 91 uCi/mg and chemical purity >99%, and non-radiolabeled dimaleate salt of N,N,-diethyl-8,8-dipropyl-2-azaspiro[4,5]decane-2-propanamine dimaleate (Compound 1) chemical purity >98%, respectively, were used in this study. The site of the radiocarbon label in Compound II is depicted by an asterisk in Formula II. The non-radiolabeled material was used for reference purposes. The radiolabeled material was stored at ca −80° C. in the dark and the non-radiolabeled material at ca −20° C. in the dark.
# Three healthy male Sprague Dawley rats (Crl:CD(SD)BR), age ca 8-9 weeks, body weights at dosing 237-255 g, were supplied by Charles River (UK) Limited. The animals were housed in holding cages suitable for this species for 8 days prior to use. SDS Rat and Mouse Maintenance Diet No. 1, (Special Diets Services, Witham Essex), and mains quality water were available ad libitum throughout. The diet and water supplied to the animals were routinely analyzed for quality and no problems were detected. Holding and study areas had automatic control of light cycle and temperature. The actual range of temperature measured during the study was 17-25° C. with relative humidity measured at 60%.
# The dose was prepared for oral administration on the day of dosing. […]
# For each rat, an aliquot of the dose solution was administered orally by gavage. […] For each dose, the combined weight of dose and dosing equipment were recorded prior to dosing and the discharged dosing equipment was weighed after dosing. The concentration of radioactive material in each dose solution was also determined.
# Immediately following dosing, the rats were placed into all glass metabolism cages suitable for the quantitative collection of excreta and expired air. All samples were collected into individual, uniquely labeled containers.
# […] The collection containers were cooled by solid CO2 during the first 48 hours after dosing.
# […] Collection containers were cooled by solid CO2 during the first 48 hours.
# At the time of each feces collection, each cage was washed with water (ca 750 mL) and the washings were retained for radioassay. During the periods 0-24 h and 24-48 hours after dosing, expired air was passed through 2 serial traps containing ethanolamine:ethoxyethaonol (3:7, v/v) in order to effect the removal of CO2. The trap solvent was sampled for radioassay at the end of each collection period.
# At 168 hours post dose, each animal was killed by CO2 narcosis and cervical dislocation. Gastrointestinal tracts were removed and retained separately from the carcasses in preparation for radioassay.
# Duplicate aliquots of urine (ca 0.3 mL) and cage washings (ca 1 mL) were dispensed, diluted to 1 mL with distilled water (if considered necessary) and mixed with Quickzint 1 scintillation fluid (10 mL; Zinsser Analytic Maidenhead, UK).
# Feces were homogenised in 1 to 2 volumes of water with the sample and homogenate weight recorded. Duplicate aliquots (ca 0.3 ) were taken from each sample and dispensed onto combustopads contained in combustocones (Canberra Packard Limited, Pangbourne, UK). When dry, these samples were combusted using a Packard Tri-Carb 306 Automatic Sample Oxidiser. The resultant ^14CO2 generated was collected by absorption in Carbo-Sorb® (8 mL; Canberra Packard Limited) to which Permafluor®E^+ scintillation fluid (10 mL; Canberra Packard Limited) was added.
# For each rat, the carcass and gastro-intestinal tract with contents were solubilised in Soluene 350 (Canberra Packard). When dissolved, portions of the digest (ca 0.1 mL) were taken for liquid scintillation spectrometry. The volume was made up to 1 mL by the addition of methanol then 10 mL Quickzint was added and the samples counted as for the other liquid samples. […]
# [1] = 168 hour collection period, #3 male
smiles,measurement,setting,value
"CCCC1(CCC)CCC2(CCN(CCCN(CC)CC)C2)CC1 [Compound II, [^14C] N,N,-diethyl-8,8-dipropyl-2-azaspiro[4,5]decane-2-propanamine dimaleate salt]","Excretion of Radioactivity, Urine","0-6 hours, #1 male",0.1
same,"Excretion of Radioactivity, Urine","0-6 hours, #2 male",0.1
same,"Excretion of Radioactivity, Urine","0-6 hours, #3 male",0.1
same,"Excretion of Radioactivity, Cage Wash","0-24 hours, #1 male",0.1
same,"Excretion of Radioactivity, Feces","0-24 hours, #1 male",18.2
same,"Excretion of Radioactivity, Cage Wash","0-24 hours, #2 male",0.1
same,"Excretion of Radioactivity, Feces","0-24 hours, #2 male",14.7
same,"Excretion of Radioactivity, Cage Wash","0-24 hours, #3 male",*<0.1
same,"Excretion of Radioactivity, Feces","0-24 hours, #3 male",17.7
same,"Excretion of Radioactivity, Cage Wash","0-24 hours, Mean",^+0.1
same,"Excretion of Radioactivity, Feces","0-24 hours, Mean",16.9
same,Dose recovered in expired air,0-48 hours,Less than 0.2 % of the dose
same,"Excretion of Radioactivity, Cage Wash","0-168 hours, #1 male",0.7
same,"Excretion of Radioactivity, Feces","0-168 hours, #1 male",64.0
same,"Excretion of Radioactivity, Urine","0-168 hours, #1 male",6.9
same,"Excretion of Radioactivity, Cage Wash","0-168 hours, #2 male",1.0
same,"Excretion of Radioactivity, Feces","0-168 hours, #2 male",65.7
same,"Excretion of Radioactivity, Urine","0-168 hours, #2 male",8.9
same,"Excretion of Radioactivity, Cage Wash","0-168 hours, #3 male",1.3
same,"Excretion of Radioactivity, Feces","0-168 hours, #3 male",66.7
same,"Excretion of Radioactivity, Urine","0-168 hours, #3 male",9.8
same,"Excretion of Radioactivity, Cage Wash","0-168 hours, Mean",1.0
same,"Excretion of Radioactivity, Feces","0-168 hours, Mean",65.5
same,"Excretion of Radioactivity, Urine","0-168 hours, Mean",8.5
same,"Excretion of Radioactivity, Urine","6-24 hours, #1 male",0.4
same,"Excretion of Radioactivity, Urine","6-24 hours, #2 male",0.5
same,"Excretion of Radioactivity, Urine","6-24 hours, #3 male",0.5
same,"Excretion of Radioactivity, Urine","6-24 hours, Mean",0.5
same,"Excretion of Radioactivity, Cage Wash","24-48 hours, #1 male",0.1
same,"Excretion of Radioactivity, Feces","24-48 hours, #1 male",16.3
same,"Excretion of Radioactivity, Urine","24-48 hours, #1 male",1.0
same,"Excretion of Radioactivity, Cage Wash","24-48 hours, #2 male",<0.1
same,"Excretion of Radioactivity, Feces","24-48 hours, #2 male",17.2
same,"Excretion of Radioactivity, Urine","24-48 hours, #2 male",1.4
same,"Excretion of Radioactivity, Cage Wash","24-48 hours, #3 male",0.1
same,"Excretion of Radioactivity, Feces","24-48 hours, #3 male",14.5
same,"Excretion of Radioactivity, Urine","24-48 hours, #3 male",1.4
same,"Excretion of Radioactivity, Cage Wash","24-48 hours, Mean",0.1
same,"Excretion of Radioactivity, Feces","24-48 hours, Mean",16.0
same,"Excretion of Radioactivity, Urine","24-48 hours, Mean",1.3
same,"Excretion of Radioactivity, Cage Wash","48-72 hours, #1 male",<0.1
same,"Excretion of Radioactivity, Feces","48-72 hours, #1 male",10.0
same,"Excretion of Radioactivity, Urine","48-72 hours, #1 male",1.2
same,"Excretion of Radioactivity, Cage Wash","48-72 hours, #2 male",0.2
same,"Excretion of Radioactivity, Feces","48-72 hours, #2 male",15.2
same,"Excretion of Radioactivity, Urine","48-72 hours, #2 male",1.5
same,"Excretion of Radioactivity, Cage Wash","48-72 hours, #3 male",0.2
same,"Excretion of Radioactivity, Feces","48-72 hours, #3 male",12.7
same,"Excretion of Radioactivity, Urine","48-72 hours, #3 male",1.7
same,"Excretion of Radioactivity, Cage Wash","48-72 hours, Mean",0.1
same,"Excretion of Radioactivity, Feces","48-72 hours, Mean",12.6
same,"Excretion of Radioactivity, Urine","48-72 hours, Mean",1.5
same,"Excretion of Radioactivity, Cage Wash","72-96 hours, #1 male",0.1
same,"Excretion of Radioactivity, Feces","72-96 hours, #1 male",7.5
same,"Excretion of Radioactivity, Urine","72-96 hours, #1 male",1.3
same,"Excretion of Radioactivity, Cage Wash","72-96 hours, #2 male",0.2
same,"Excretion of Radioactivity, Feces","72-96 hours, #2 male",7.8
same,"Excretion of Radioactivity, Urine","72-96 hours, #2 male",1.6
same,"Excretion of Radioactivity, Cage Wash","72-96 hours, #3 male",0.3
same,"Excretion of Radioactivity, Feces","72-96 hours, #3 male",8.0
same,"Excretion of Radioactivity, Urine","72-96 hours, #3 male",2.0
same,"Excretion of Radioactivity, Cage Wash","72-96 hours, Mean",0.2
same,"Excretion of Radioactivity, Feces","72-96 hours, Mean",7.8
same,"Excretion of Radioactivity, Urine","72-96 hours, Mean",1.6
same,"Excretion of Radioactivity, Cage Wash","96-120 hours, #1 male",0.1
same,"Excretion of Radioactivity, Feces","96-120 hours, #1 male",5.5
same,"Excretion of Radioactivity, Urine","96-120 hours, #1 male",1.2
same,"Excretion of Radioactivity, Cage Wash","96-120 hours, #2 male",0.2
same,"Excretion of Radioactivity, Feces","96-120 hours, #2 male",4.1
same,"Excretion of Radioactivity, Urine","96-120 hours, #2 male",1.5
same,"Excretion of Radioactivity, Cage Wash","96-120 hours, #3 male",0.2
same,"Excretion of Radioactivity, Feces","96-120 hours, #3 male",6.4
same,"Excretion of Radioactivity, Urine","96-120 hours, #3 male",1.6
same,"Excretion of Radioactivity, Cage Wash","96-120 hours, Mean",0.2
same,"Excretion of Radioactivity, Feces","96-120 hours, Mean",5.3
same,"Excretion of Radioactivity, Urine","96-120 hours, Mean",1.4
same,"Excretion of Radioactivity, Cage Wash","120-144 hours, #1 male",0.1
same,"Excretion of Radioactivity, Feces","120-144 hours, #1 male",3.5
same,"Excretion of Radioactivity, Urine","120-144 hours, #1 male",0.9
same,"Excretion of Radioactivity, Cage Wash","120-144 hours, #2 male",0.1
same,"Excretion of Radioactivity, Feces","120-144 hours, #2 male",3.5
same,"Excretion of Radioactivity, Urine","120-144 hours, #2 male",1.3
same,"Excretion of Radioactivity, Cage Wash","120-144 hours, #3 male",0.3
same,"Excretion of Radioactivity, Feces","120-144 hours, #3 male",4.3
same,"Excretion of Radioactivity, Urine","120-144 hours, #3 male",1.3
same,"Excretion of Radioactivity, Cage Wash","120-144 hours, Mean",0.2
same,"Excretion of Radioactivity, Feces","120-144 hours, Mean",3.8
same,"Excretion of Radioactivity, Urine","120-144 hours, Mean",1.2
same,"Excretion of Radioactivity, Urine","144-162 hours, #1 male",0.8
same,"Excretion of Radioactivity, Urine","144-162 hours, #2 male",1.0
same,"Excretion of Radioactivity, Urine","144-162 hours, #3 male",1.2
same,"Excretion of Radioactivity, Urine","144-162 hours, Mean",1.0
same,"Excretion of Radioactivity, Cage Wash","144-168 hours, #1 male",0.2
same,"Excretion of Radioactivity, Feces","144-168 hours, #1 male",3.0
same,"Excretion of Radioactivity, Cage Wash","144-168 hours, #2 male",0.2
same,"Excretion of Radioactivity, Feces","144-168 hours, #2 male",3.2
same,"Excretion of Radioactivity, Cage Wash","144-168 hours, #3 male",0.2
same,"Excretion of Radioactivity, Feces","144-168 hours, #3 male",3.1
same,"Excretion of Radioactivity, Cage Wash","144-168 hours, Mean",0.2
same,"Excretion of Radioactivity, Feces","144-168 hours, Mean",3.1
same,"Recovery of Radioactivity, Total","168 hour collection period, #1 male",96.7 % administered dose
same,"Recovery of Radioactivity, Total","168 hour collection period, #2 male",103.0 % administered dose
same,"Recovery of Radioactivity, Cage Washings",[1],*1.3 % administered dose
same,"Recovery of Radioactivity, Total",[1],103.2 % administered dose
same,"Recovery of Radioactivity, Total","168 hour collection period, Mean",101.0 % administered dose
same,"Recovery of Radioactivity, Expired air 1",#1 male,*<0.1 % administered dose
same,"Recovery of Radioactivity, Expired air 2",#1 male,*<0.1 % administered dose
same,"Recovery of Radioactivity, Expired air 1",#2 male,*<0.1 % administered dose
same,"Recovery of Radioactivity, Expired air 2",#2 male,*<0.1 % administered dose
same,"Recovery of Radioactivity, Expired air 1",#3 male,*<0.1 % administered dose
same,"Recovery of Radioactivity, Expired air 2",#3 male,*<0.1 % administered dose
same,"Recovery of Radioactivity, Expired air 1",Mean,^+<0.1 % administered dose
same,"Recovery of Radioactivity, Expired air 2",Mean,^+<0.1 % administered dose
same,"Recovery of Radioactivity, Carcass",#1 male,11.3 % administered dose
same,"Recovery of Radioactivity, GI Tract",#1 male,13.8 % administered dose
same,"Recovery of Radioactivity, Carcass",#2 male,14.1 % administered dose
same,"Recovery of Radioactivity, GI Tract",#2 male,13.3 % administered dose
same,"Recovery of Radioactivity, Carcass",#3 male,14.9 % administered dose
same,"Recovery of Radioactivity, GI Tract",#3 male,10.5 % administered dose
same,"Recovery of Radioactivity, Carcass",Mean,~13.5 % administered dose
same,"Recovery of Radioactivity, GI Tract",Mean,~12.5 % administered dose
same,Dose recovered in excreta and cage washings,"mean, full 168 hour collection period",75.0%
same,Administered radioactive dose recovered (total),"range over three rats, 168 hours",96.7-103.2%
same,Dose recovered in the excreta,up to 120 hours after dosing,~66 % of the dose
